Reference: PMC6515931, “The Efflux Mechanism of Fraxetin-O-Glucuronides in UGT1A9-Transfected HeLa Cells: Identification of Multidrug Resistance-Associated Proteins 3 and 4 (MRP3/4) as the Important Contributors” (Frontiers in Pharmacology, 2019)

Experiments:
UGT1A9 [1] = biological target: T1, UGT1A9 (Homo sapiens, UniProt O60656); experiment: Inhibition of fraxetin-O-glucuronide formation by selective UGT1A9 inhibitors; assay type: biochemical; parameters: purchased Corning Biosciences; conditions: fraxetin 4 and 20 μM; magnolol 1 μM, niflumic acid 10 μM, androsterone 10 μM
T1 sequence (O60656 26-530): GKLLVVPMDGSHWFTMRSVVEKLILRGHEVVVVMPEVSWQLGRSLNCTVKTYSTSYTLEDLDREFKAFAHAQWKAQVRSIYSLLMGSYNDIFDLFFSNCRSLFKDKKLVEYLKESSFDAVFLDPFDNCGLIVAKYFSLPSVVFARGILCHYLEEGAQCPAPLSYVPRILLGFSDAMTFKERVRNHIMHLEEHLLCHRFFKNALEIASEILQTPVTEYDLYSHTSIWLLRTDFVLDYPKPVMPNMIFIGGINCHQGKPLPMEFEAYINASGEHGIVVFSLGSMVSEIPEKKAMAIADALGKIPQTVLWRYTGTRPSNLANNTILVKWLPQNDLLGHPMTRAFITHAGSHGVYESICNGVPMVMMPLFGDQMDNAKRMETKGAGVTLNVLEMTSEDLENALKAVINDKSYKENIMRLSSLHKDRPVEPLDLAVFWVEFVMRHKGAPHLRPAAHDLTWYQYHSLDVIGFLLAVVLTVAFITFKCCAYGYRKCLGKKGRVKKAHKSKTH
Protocol: (§1) The incubation system was slightly modified on the basis of a previously published article ([Qin et al., 2018a]). […] After preincubation at 37°C for 5 min, UDPGA (3.5 mM) was added to the reaction system, and the mixture was incubated for another 30 min. These reactions were terminated by the addition of an equal volume of ice-cold acetonitrile. The mixed samples were centrifuged at 13800 × g for 10 min, and the supernatant was analyzed by ultra-high-performance liquid chromatography (UHPLC). All the experiments were conducted in triplicate.
Other detailed operations were the same as described above.

HeLa1A9 cells = experiment: Glucuronide excretion experiments in HeLa1A9 cells; assay type: cell-based, human; conditions: for excretion with elevation of the fraxetin concentration: fraxetin 5, 10 and 20 μM, HeLa1A9 cells
Protocol: The HeLa1A9 cells were pretreated and incubated with fraxetin solutions as reported previously ([Jiang et al., 2011]). Before assays, the HeLa1A9 cells were washed twice with prewarmed (37°C) Hank’s balanced salt solution (HBSS; pH = 7.4). […] At each time point (30, 60, 90, and 120 min), 200 μL of the culture supernatant from each well was collected as samples, and an equal volume of a loading media was used to replenish each well. Next, the collected samples were each mixed with 100 μL ice-cold acetonitrile. The supernatants were subjected to UHPLC analysis after centrifugation (10 min at 13800 × g).
(§2) In addition, the excretion rate of intracellular glucuronides was calculated using Equ. 2. Fraction metabolized or the fmet value was defined as the fraction of a dose metabolized based on Equ. 3. The fmet value was regarded as the more appropriate parameter to reflect the extent of drug metabolism in intact cells in the presence of a transporter–enzyme interplay.
(§3) (2) Excretion rate=VdC(excretedglucuronide)/dt
(§4) where V is the volume of the incubation medium, C is the excreted cumulative concentration of glucuronides, and t denotes the incubation time. Here, dC(excreted glucuronide)/dt describes the changes in glucuronide levels with time.

MRP4 = biological target: T2, MRP4 (Homo sapiens, UniProt O15439); experiment: shRNA-mediated partial silencing of MRP4 in HeLa1A9 cells, glucuronide excretion; assay type: cell-based; conditions: fraxetin 10 μM; for decreased excretion of glucuronide: HeLa1A9 cells
T2 construct: BCRP, MRP1, MRP3, and MRP4 were detected in both wild-type HeLa and HeLa1A9 cells; endogenous in cells
T2 sequence (O15439 1-1325): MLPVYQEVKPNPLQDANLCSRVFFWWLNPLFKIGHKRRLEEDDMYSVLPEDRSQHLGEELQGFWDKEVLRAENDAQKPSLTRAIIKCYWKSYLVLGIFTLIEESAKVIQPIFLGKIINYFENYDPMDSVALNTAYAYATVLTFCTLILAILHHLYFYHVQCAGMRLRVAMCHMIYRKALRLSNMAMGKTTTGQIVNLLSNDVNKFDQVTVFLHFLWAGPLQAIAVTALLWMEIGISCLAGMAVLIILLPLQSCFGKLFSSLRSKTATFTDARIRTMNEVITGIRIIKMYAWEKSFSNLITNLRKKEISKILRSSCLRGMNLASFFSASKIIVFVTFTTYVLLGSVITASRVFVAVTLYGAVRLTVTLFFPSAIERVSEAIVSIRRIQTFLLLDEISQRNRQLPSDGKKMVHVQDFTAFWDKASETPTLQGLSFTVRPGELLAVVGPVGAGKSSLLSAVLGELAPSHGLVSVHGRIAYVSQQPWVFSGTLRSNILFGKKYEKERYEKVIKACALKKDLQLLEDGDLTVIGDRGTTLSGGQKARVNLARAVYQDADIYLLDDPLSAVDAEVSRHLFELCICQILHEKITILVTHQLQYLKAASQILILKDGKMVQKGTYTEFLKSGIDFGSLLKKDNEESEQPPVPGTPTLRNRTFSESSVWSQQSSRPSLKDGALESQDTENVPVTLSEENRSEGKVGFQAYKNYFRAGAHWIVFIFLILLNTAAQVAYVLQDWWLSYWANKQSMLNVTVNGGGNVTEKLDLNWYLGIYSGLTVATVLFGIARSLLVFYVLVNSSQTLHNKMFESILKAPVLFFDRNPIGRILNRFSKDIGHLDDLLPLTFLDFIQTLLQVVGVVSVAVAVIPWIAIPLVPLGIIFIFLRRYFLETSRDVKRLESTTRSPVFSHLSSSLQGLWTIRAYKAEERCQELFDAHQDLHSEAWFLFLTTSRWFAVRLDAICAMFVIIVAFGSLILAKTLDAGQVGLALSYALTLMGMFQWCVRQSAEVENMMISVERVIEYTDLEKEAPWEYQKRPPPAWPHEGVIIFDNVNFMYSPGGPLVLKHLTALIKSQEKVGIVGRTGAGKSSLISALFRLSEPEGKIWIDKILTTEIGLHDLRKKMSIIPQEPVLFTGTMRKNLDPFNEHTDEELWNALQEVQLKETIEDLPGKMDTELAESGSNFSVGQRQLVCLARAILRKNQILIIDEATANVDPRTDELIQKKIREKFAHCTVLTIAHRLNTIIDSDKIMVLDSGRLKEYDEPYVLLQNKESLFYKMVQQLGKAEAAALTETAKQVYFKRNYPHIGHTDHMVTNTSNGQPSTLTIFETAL
Protocol: (§5) The HeLa1A9 cells were pretreated and incubated with fraxetin solutions as reported previously ([Jiang et al., 2011]). Before assays, the HeLa1A9 cells were washed twice with prewarmed (37°C) Hank’s balanced salt solution (HBSS; pH = 7.4). After that, fraxetin (10 μM) dissolved in 2 mL of HBSS was incubated with the HeLa1A9 cells. At each time point (30, 60, 90, and 120 min), 200 μL of the culture supernatant from each well was collected as samples, and an equal volume of a loading media was used to replenish each well. Next, the collected samples were each mixed with 100 μL ice-cold acetonitrile. The supernatants were subjected to UHPLC analysis after centrifugation (10 min at 13800 × g).
(§6) In glucuronide excretion assays, biological inhibition mainly including shRNA-mediated partial silencing of BCRP and MRPs in HeLa cells was usually performed to evaluate the role of each efflux transporter ([Quan et al., 2015]; [Sun et al., 2015]; [Qin et al., 2018a]). Established shRNA_BCRP, shRNA_MRP1, shRNA_MRP3, and shRNA_MRP4 plasmids were […] transfected into HeLa1A9 cells to develop the stably shRNA-transfected cell lines, named HeLa1A9-BCRP-shRNA cells, HeLa1A9-MRP1-shRNA, HeLa1A9-MRP3-shRNA, and HeLa1A9-MRP4-shRNA cells, respectively. After transfection for 2 days, these engineered HeLa1A9 cells were subjected to fraxetin-O-glucuronide excretion experiments. The control scrambled shRNA served as a negative control.
as §2, §3
(§7) (3) fmet=excreted glucuronide+intracellular glucuronide/dosed aglycone
as §4

MRP3 = biological target: T3, MRP3 (Homo sapiens, UniProt O15438); experiment: shRNA-mediated partial silencing of MRP3 in HeLa1A9 cells, glucuronide excretion; assay type: cell-based; conditions: fraxetin 10 μM; for decrease in fraction metabolized (fmet; overall cellular glucuronidation) / reduction in excretion rate / reduction in excreted glucuronide: MRP3 knockdown; for reduction in excreted glucuronide: HeLa1A9 cells; for elevation of intracellular glucuronide level: MRP3 silencing
T3 construct: BCRP, MRP1, MRP3, and MRP4 were detected in both wild-type HeLa and HeLa1A9 cells; endogenous in cells
T3 sequence (O15438 whole entry): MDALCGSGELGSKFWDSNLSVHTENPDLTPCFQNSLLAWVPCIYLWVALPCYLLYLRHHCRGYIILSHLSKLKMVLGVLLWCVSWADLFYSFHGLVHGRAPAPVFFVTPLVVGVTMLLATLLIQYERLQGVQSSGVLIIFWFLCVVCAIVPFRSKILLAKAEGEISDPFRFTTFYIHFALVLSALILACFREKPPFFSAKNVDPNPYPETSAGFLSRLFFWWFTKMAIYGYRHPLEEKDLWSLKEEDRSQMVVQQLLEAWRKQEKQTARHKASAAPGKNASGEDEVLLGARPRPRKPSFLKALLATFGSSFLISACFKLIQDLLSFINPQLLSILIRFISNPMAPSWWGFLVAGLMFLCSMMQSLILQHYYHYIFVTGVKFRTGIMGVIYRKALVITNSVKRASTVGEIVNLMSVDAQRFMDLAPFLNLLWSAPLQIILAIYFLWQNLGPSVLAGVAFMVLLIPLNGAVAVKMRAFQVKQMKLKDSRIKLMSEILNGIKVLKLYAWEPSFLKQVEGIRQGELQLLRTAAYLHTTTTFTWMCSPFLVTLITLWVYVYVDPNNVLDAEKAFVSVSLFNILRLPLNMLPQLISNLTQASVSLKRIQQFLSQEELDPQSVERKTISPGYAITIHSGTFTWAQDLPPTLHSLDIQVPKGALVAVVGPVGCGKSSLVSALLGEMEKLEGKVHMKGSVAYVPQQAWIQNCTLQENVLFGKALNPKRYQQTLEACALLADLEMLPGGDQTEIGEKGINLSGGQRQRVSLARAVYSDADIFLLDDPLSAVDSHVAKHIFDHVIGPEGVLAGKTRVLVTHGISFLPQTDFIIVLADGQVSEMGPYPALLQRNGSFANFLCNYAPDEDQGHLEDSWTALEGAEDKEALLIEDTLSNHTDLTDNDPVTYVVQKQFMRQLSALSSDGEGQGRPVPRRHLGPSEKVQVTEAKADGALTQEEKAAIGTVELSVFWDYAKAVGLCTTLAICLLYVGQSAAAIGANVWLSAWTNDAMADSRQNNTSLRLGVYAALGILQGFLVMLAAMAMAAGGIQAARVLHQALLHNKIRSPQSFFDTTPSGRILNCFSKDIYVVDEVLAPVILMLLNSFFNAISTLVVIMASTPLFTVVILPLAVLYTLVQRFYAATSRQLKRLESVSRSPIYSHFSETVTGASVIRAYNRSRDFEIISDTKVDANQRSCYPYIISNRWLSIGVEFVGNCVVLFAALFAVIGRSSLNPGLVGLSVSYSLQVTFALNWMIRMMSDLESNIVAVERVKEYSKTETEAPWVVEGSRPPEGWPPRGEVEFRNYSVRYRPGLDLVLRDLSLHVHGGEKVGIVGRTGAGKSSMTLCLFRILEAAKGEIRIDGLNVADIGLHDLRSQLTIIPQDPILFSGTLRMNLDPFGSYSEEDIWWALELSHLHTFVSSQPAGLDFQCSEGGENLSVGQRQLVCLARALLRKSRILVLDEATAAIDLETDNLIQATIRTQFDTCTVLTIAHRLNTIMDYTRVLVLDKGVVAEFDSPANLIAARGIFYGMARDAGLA
Protocol: as §5, §6, §2, §3, §7, §4

UGT1A9 [2] = biological target: T1, UGT1A9
Protocol: as §1
The enzyme kinetic parameters were obtained by fitting appropriate kinetic models to the experimental data in GraphPad Prism V5 software (San Diego, CA, United States). The best model was selected based on visual inspection of the Eadie–Hofstee plots ([Qin et al., 2018b]). In brief, if the Eadie–Hofstee plot was linear, formation rates (V) of glucuronides at different substrate concentrations (C) were fitted to the standard equations (1): […]
Where Km is the Michaelis–Menten constant, and Vmax is the maximum rate of glucuronidation. The intrinsic clearance (CLint) was computed as Vmax/Km.

[3] = substrate: COc1cc2ccc(=O)oc2c(O)c1O; experiment: cells, lysate or membranes named; conditions: UGT1A9 enzyme, pH 7.4, 37.0 °C
[4] = substrate: CC(C)c1cccc(C(C)C)c1O; experiment: cells, lysate or membranes named; conditions: other: metabolite propofol-G, pH 7.4, 37.0 °C
[5] = substrate: COc1cc2ccc(=O)oc2c(O)c1O; experiment: Glucuronidation kinetics by HeLa1A9 cell lysate; assay type: in vitro ADME, human
Protocol: HeLa1A9 cells were grown in 10 cm dishes for 3 to 4 days and then were washed and harvested in 50 mM Tris buffer (pH = 7.4). The collected cells were sonicated using a tight-fitting Dounce homogenizer in an ice-cold water bath (4°C). […] Next, the cell lysates were centrifuged at 4°C (13800 × g for 10 min). The supernatant to be used in the UGT glucuronidation activity assay was collected, and its protein concentration was measured by the bicinchoninic acid assay (BCA; Beyotime, Shanghai, China).

[6] = other: metabolite G1, pH 7.4, 37.0 °C
[7] = other: metabolite G2, pH 7.4, 37.0 °C

## C=CCc1ccc(O)c(-c2cc(CC=C)ccc2O)c1 [magnolol]
UGT1A9 [1]
  effect on formation of G1 and G2: significantly inhibited

## CC(C)c1cccc(C(C)C)c1O[C@@H]1O[C@H](C(=O)O)[C@@H](O)[C@H](O)[C@H]1O [propofol-O-glucuronide]
HeLa1A9 cells; propofol 40 μM incubated with HeLa1A9 cells
  excretion rate: 0.053 pmol/min
HeLa1A9 cells; propofol 80 μM incubated with HeLa1A9 cells
  excretion rate: 0.070 pmol/min

## COc1cc2ccc(=O)oc2c(O)c1O[C@@H]1O[C@H](C(=O)O)[C@@H](O)[C@H](O)[C@H]1O [G2, fraxetin-7-O-glucuronide]
HeLa1A9 cells
  excretion with elevation of the fraxetin concentration: markedly increased
MRP4
  decrease in fraction metabolized (fmet): 23.1%
  elevation of intracellular glucuronide: 52.4%
  reduction in excretion rate: 32.3%
  decreased excretion of glucuronide: 33.0–42.4%
MRP3
  decrease in fraction metabolized (fmet; overall cellular glucuronidation): 18.6%
  reduction in excretion rate: 21.1%
  reduction in excreted glucuronide: 15.1–31.9%
  elevation of intracellular glucuronide level: 45.4%
UGT1A9 [2]
  Km: 8 to 16 µM

## COc1cc2ccc(=O)oc2c(O[C@@H]2O[C@H](C(=O)O)[C@@H](O)[C@H](O)[C@H]2O)c1O [G1, fraxetin-8-O-glucuronide]
HeLa1A9 cells
  excretion with elevation of the fraxetin concentration: markedly increased
MRP4
  decrease in fraction metabolized (fmet): 22.7%
  elevation of intracellular glucuronide: 42.0%
  reduction in excretion rate: 34.8%
  decreased excretion of glucuronide: 33.6–51.1%
MRP3
  decrease in fraction metabolized (fmet; overall cellular glucuronidation): 24.1%
  reduction in excretion rate: 29.1%
  reduction in excreted glucuronide: 19.8–39.4%
  elevation of intracellular glucuronide level: 30.2%
UGT1A9 [2]
  Km: 8 to 16 µM

B1: UGT1A9 (Homo sapiens) (protein)
chain: GKLLVVPMDGSHWFTMRSVVEKLILRGHEVVVVMPEVSWQLGRSLNCTVKTYSTSYTLEDLDREFKAFAHAQWKAQVRSIYSLLMGSYNDIFDLFFSNCRSLFKDKKLVEYLKESSFDAVFLDPFDNCGLIVAKYFSLPSVVFARGILCHYLEEGAQCPAPLSYVPRILLGFSDAMTFKERVRNHIMHLEEHLLCHRFFKNALEIASEILQTPVTEYDLYSHTSIWLLRTDFVLDYPKPVMPNMIFIGGINCHQGKPLPMEFEAYINASGEHGIVVFSLGSMVSEIPEKKAMAIADALGKIPQTVLWRYTGTRPSNLANNTILVKWLPQNDLLGHPMTRAFITHAGSHGVYESICNGVPMVMMPLFGDQMDNAKRMETKGAGVTLNVLEMTSEDLENALKAVINDKSYKENIMRLSSLHKDRPVEPLDLAVFWVEFVMRHKGAPHLRPAAHDLTWYQYHSLDVIGFLLAVVLTVAFITFKCCAYGYRKCLGKKGRVKKAHKSKTH
[3]; other: metabolite G1
  Km: 16 ± 2 µM
  Vmax: 0.00292 µmol/min/mg
  Vmax/Km: 180 µL/min/mg
[3]; other: metabolite G2
  Km: 10 ± 1 µM
  Vmax: 0.00144 µmol/min/mg
  Vmax/Km: 150 µL/min/mg
[4]; UGT1A9 enzyme
  Km: 53 ± 6 µM

B2: HeLa1A9 cell lysate (Homo sapiens) (protein)
chain: GKLLVVPMDGSHWFTMRSVVEKLILRGHEVVVVMPEVSWQLGRSLNCTVKTYSTSYTLEDLDREFKAFAHAQWKAQVRSIYSLLMGSYNDIFDLFFSNCRSLFKDKKLVEYLKESSFDAVFLDPFDNCGLIVAKYFSLPSVVFARGILCHYLEEGAQCPAPLSYVPRILLGFSDAMTFKERVRNHIMHLEEHLLCHRFFKNALEIASEILQTPVTEYDLYSHTSIWLLRTDFVLDYPKPVMPNMIFIGGINCHQGKPLPMEFEAYINASGEHGIVVFSLGSMVSEIPEKKAMAIADALGKIPQTVLWRYTGTRPSNLANNTILVKWLPQNDLLGHPMTRAFITHAGSHGVYESICNGVPMVMMPLFGDQMDNAKRMETKGAGVTLNVLEMTSEDLENALKAVINDKSYKENIMRLSSLHKDRPVEPLDLAVFWVEFVMRHKGAPHLRPAAHDLTWYQYHSLDVIGFLLAVVLTVAFITFKCCAYGYRKCLGKKGRVKKAHKSKTH
notes: expressed in transfected cells; host or cells: HeLa cells stably transfected with the UGT1A9 gene (HeLa1A9); lysate supernatant
[4]; HeLa1A9 cell lysate
  Km: 59 ± 13 µM
[5]; [6]
  Km: 13 ± 2 µM
  Vmax: 0.00011 ± 5e-06 µmol/min/mg
  Vmax/Km: 9 ± 1 µL/min/mg
[5]; [7]
  Km: 8 ± 1 µM
  Vmax: 4.2e-05 ± 2e-06 µmol/min/mg
  Vmax/Km: 5 ± 1 µL/min/mg
